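A five-concentration, 48-hour dose response in 96-well plates underlies each endpoint, interpolated linearly between surrounding concentrations. TGI: total growth inhibition.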
Tests used:
Test in all cases: growth of human tumour cells (NCI), 48 h
CAKI-1 renal = system: CAKI-1 renal
NCI-H226 lung = system: NCI-H226 lung
NCI-H460 lung = system: NCI-H460 lung
SK-MEL-2 melanoma = system: SK-MEL-2 melanoma
SNB-19 CNS = system: SNB-19 CNS
T-47D breast = system: T-47D breast
TK-10 renal = system: TK-10 renal
MDA-N = system: MDA-N
NCI-H522 lung = system: NCI-H522 lung
IGROV1 ovarian = system: IGROV1 ovarian

SMILES	TGI (CAKI-1 renal)	TGI (NCI-H226 lung)	TGI (NCI-H460 lung)	TGI (SK-MEL-2 melanoma)	TGI (SNB-19 CNS)	TGI (T-47D breast)	TGI (TK-10 renal)	TGI (MDA-N)	TGI (NCI-H522 lung)	TGI (IGROV1 ovarian)
CC(C)OC(=O)[C@@H](O)[C@H](CO)C1=CC([Si](C)(C)c2ccccc2)=CON1	> 100 µM	> 100 µM	> 100 µM	> 100 µM	> 100 µM	> 100 µM	> 100 µM	–	–	–
CCN(CC)C(=O)N1CN(c2ccccc2)C2(CCN(CCCSc3ccc(F)cc3)CC2)C1=O	> 100 µM	44.4 µM	–	21 µM	> 100 µM	47.1 µM	31.5 µM	21.3 µM	30.5 µM	–
CCN(CC)CCCC(C)NC(=O)c1ccc2c(c1)C(=O)c1ccccc1C2=O (stereo unspecified)	79.3 µM	49 µM	39.8 µM	38.9 µM	55.3 µM	–	66.5 µM	–	37.4 µM	55.3 µM
N#Cc1ccc(Oc2nc3ccc(C(F)(F)F)cc3nc2-c2ccccc2)cc1	44.3 µM	–	31.4 µM	36.9 µM	41.2 µM	38.5 µM	33.6 µM	57.8 µM	32.2 µM	41.3 µM
COC(=O)[C@H](Cc1ccccc1)NP(=O)(O)OCC1C=CC(n2cc(C)c(=O)[nH]c2=O)O1 (stereo partly specified)	> 100 µM	> 100 µM	> 100 µM	> 100 µM	> 100 µM	> 100 µM	> 100 µM	–	> 100 µM	> 100 µM
O=C1CCCC2=C1CC1=C(CCCC1=O)N2c1ccccc1	> 100 µM	> 100 µM	> 100 µM	–	> 100 µM	–	> 100 µM	–	–	> 100 µM
O=[N+]([O-])c1c2nc3n(c2cc2c1nc1n2CCC1)CCC3	> 100 µM	> 100 µM	> 100 µM	–	> 100 µM	> 100 µM	> 100 µM	> 100 µM	> 100 µM	> 100 µM
COc1ccc(/C=N/NC(=O)c2cnc3[nH]c(=O)n(C)c(=O)c3c2)cc1	> 100 µM	> 100 µM	> 100 µM	> 100 µM	98.8 µM	> 100 µM	> 100 µM	> 100 µM	–	> 100 µM
CC[C@@]12C=CC(=S)N(CCSc3ccccc3)[C@@H]1c1c(n(S(=O)(=O)c3ccc(OC)cc3)c3ccccc13)CC2	> 100 µM	–	> 100 µM	> 100 µM	> 100 µM	> 100 µM	> 100 µM	> 100 µM	> 100 µM	–
CC(C)C(=O)/C=C/c1ccc(Cl)c(Cl)c1	–	–	48 µM	31.9 µM	28.5 µM	–	28.8 µM	–	35.1 µM	40.4 µM
CCN1CCC(O)(c2ccc(Oc3ccc(C)cc3)cc2)C(C(=O)c2ccc(Oc3ccc(C)cc3)cc2)C1 (stereo unspecified)	25.8 µM	27.9 µM	13.8 µM	35.9 µM	27.2 µM	33.7 µM	20.8 µM	22.6 µM	–	25 µM
C[C@]1(O)O[C@@H]2OCC[C@@H]2C2=C1C(=O)c1ccccc1C2=O	34.7 µM	–	32.8 µM	32 µM	35.2 µM	59.1 µM	35.5 µM	19.1 µM	31.6 µM	27.2 µM
CC(C)(C)c1ccc(C(C)(C)C)c(N2C(=O)C3ON=C(c4ccc([N+](=O)[O-])cc4)C3C2=O)c1 (stereo unspecified)	> 25 µM	> 25 µM	> 25 µM	–	> 25 µM	> 25 µM	> 25 µM	> 25 µM	> 25 µM	19.4 µM
O=C1C(NCCN2CCOCC2)=C(Cl)C(=O)c2ncccc21	–	3.64 µM	1.71 µM	1.11 µM	2.75 µM	3.14 µM	2.78 µM	0.346 µM	–	2.3 µM
CCCCCCC(C)OC(=O)/C=C(\CC(=O)OC(C)CCCCCC)C(=O)OC(C)CCCCCC (stereo unspecified)	> 100 µM	> 100 µM	> 100 µM	> 100 µM	–	–	> 100 µM	–	> 100 µM	> 100 µM
NC1CC(=O)c2sccc21 (stereo unspecified)	> 100 µM	> 100 µM	–	79.3 µM	> 100 µM	> 100 µM	> 100 µM	–	> 100 µM	> 100 µM
c1ccc(C2=NCCc3cc4c(cc32)OCO4)cc1	> 100 µM	–	–	> 100 µM	> 100 µM	> 100 µM	> 100 µM	> 100 µM	> 100 µM	> 100 µM
CCN(CC)CCCOc1cc2c(cc1OC)C(=O)N1CCC[C@H]1C=N2	44.3 µM	65.8 µM	> 100 µM	> 100 µM	> 100 µM	–	> 100 µM	–	54 µM	–
O=C1c2ccccc2C(=O)c2c(O)ccc(O)c21	> 100 µM	–	> 100 µM	> 100 µM	> 100 µM	–	> 100 µM	–	> 100 µM	> 100 µM

Source: PubChem BioAssay (NCI)
